Assay results from patent publication US10231954B2, “Neurodegenerative therapies” (LYTIX BIOPHARMA AS, priority 2014, dated 2019).
Where two headings read alike, the source gives them in different places.

Columns and labels:
Assay type in all cases: biochemical
PHK = experiment: Kinase profiling PHK
Text: (§1) Any value less that 25 is considered to be highly significant inhibition.

BRSK1 = target: T1, BRSK1 (Homo sapiens, UniProt Q8TDC3); experiment: Kinase profiling BRSK1; conditions: for remaining activity at 100 µM: read-out: residual kinase activity, BRSK1
T1 sequence (Q8TDC3 1-778): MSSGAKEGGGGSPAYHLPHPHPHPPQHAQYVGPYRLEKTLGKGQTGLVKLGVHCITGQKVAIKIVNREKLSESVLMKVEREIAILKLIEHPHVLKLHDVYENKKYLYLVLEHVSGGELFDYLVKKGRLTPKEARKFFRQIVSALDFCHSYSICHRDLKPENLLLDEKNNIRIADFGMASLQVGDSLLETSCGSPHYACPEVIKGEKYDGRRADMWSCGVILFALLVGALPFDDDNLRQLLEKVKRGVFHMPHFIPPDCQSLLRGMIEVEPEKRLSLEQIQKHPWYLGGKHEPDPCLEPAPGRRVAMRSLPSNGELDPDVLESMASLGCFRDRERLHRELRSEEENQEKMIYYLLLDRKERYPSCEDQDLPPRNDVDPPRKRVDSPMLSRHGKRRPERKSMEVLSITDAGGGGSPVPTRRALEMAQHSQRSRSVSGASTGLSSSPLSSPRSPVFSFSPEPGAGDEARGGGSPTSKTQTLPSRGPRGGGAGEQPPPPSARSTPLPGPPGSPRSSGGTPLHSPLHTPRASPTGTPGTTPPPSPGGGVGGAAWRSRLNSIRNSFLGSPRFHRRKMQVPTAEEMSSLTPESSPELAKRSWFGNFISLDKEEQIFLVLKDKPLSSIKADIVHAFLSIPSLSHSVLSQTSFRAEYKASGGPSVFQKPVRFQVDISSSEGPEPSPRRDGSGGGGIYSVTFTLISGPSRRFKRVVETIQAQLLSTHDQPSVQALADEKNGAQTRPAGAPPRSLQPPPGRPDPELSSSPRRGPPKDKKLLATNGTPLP
Text: as §1

ZAP70 = target: T2, ZAP70 (Homo sapiens, UniProt P43403); experiment: Kinase profiling ZAP70; conditions: for remaining activity at 100 µM: read-out: residual kinase activity, ZAP70
T2 sequence (P43403 1-619): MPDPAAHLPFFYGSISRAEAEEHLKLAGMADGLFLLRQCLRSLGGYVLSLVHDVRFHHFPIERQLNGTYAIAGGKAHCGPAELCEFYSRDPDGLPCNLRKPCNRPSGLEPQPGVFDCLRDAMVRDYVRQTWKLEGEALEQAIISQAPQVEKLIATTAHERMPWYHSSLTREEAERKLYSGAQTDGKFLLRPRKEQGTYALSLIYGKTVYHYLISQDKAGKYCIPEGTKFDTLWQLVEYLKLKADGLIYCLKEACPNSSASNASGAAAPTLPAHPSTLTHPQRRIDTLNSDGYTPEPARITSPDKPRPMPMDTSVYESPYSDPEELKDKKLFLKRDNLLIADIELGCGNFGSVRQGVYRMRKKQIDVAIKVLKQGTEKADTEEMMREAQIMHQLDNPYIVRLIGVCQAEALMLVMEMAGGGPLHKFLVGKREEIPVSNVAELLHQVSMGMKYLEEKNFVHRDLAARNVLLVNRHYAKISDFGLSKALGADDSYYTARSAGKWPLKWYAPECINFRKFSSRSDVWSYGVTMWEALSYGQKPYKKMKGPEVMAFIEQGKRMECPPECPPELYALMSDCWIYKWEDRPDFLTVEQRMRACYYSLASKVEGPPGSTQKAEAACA
Text: as §1

HIPK1 = HIPK1 (Homo sapiens, UniProt Q86Z02); experiment: Kinase profiling HIPK1; conditions: for remaining activity at 100 µM: read-out: residual kinase activity, HIPK1
Chain of HIPK1 (Q86Z02 whole entry, species assumed): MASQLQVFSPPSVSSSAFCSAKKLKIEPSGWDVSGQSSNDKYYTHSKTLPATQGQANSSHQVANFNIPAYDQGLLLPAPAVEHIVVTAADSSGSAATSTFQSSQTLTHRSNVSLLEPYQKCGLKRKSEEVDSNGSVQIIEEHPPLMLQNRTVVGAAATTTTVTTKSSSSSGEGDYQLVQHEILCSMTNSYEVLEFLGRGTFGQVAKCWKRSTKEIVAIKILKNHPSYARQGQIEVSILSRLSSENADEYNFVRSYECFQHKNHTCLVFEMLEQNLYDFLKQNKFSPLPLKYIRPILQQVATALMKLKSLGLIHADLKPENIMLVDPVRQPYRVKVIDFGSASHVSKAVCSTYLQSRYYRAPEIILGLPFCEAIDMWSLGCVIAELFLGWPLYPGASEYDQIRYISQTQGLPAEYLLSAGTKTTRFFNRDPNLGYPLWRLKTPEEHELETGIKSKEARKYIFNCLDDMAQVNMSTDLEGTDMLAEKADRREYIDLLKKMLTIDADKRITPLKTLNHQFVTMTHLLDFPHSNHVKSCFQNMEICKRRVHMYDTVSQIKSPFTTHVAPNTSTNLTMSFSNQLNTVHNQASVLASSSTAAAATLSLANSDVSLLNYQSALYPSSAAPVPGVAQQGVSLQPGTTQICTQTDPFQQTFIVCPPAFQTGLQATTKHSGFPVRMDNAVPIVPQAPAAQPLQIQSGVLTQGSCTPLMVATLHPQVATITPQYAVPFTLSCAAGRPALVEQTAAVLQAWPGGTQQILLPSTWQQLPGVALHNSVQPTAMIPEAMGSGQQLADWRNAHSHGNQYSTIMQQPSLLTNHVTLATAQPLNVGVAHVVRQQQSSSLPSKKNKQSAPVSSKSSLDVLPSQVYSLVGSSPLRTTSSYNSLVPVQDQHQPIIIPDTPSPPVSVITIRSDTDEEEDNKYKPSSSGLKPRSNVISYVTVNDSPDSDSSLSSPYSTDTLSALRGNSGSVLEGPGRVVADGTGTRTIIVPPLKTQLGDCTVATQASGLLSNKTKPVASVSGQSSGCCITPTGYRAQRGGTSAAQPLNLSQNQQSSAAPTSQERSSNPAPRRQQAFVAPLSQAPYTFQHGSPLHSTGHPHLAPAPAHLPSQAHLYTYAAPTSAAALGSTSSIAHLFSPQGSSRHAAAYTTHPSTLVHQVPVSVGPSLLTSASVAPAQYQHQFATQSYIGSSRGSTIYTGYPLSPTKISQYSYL
Text: as §1

ASK1 = target: T3, ASK1 (Homo sapiens, UniProt Q99683); experiment: Kinase profiling ASK1; conditions: for remaining activity at 100 µM: read-out: residual kinase activity, ASK1
T3 sequence (Q99683 1-1374): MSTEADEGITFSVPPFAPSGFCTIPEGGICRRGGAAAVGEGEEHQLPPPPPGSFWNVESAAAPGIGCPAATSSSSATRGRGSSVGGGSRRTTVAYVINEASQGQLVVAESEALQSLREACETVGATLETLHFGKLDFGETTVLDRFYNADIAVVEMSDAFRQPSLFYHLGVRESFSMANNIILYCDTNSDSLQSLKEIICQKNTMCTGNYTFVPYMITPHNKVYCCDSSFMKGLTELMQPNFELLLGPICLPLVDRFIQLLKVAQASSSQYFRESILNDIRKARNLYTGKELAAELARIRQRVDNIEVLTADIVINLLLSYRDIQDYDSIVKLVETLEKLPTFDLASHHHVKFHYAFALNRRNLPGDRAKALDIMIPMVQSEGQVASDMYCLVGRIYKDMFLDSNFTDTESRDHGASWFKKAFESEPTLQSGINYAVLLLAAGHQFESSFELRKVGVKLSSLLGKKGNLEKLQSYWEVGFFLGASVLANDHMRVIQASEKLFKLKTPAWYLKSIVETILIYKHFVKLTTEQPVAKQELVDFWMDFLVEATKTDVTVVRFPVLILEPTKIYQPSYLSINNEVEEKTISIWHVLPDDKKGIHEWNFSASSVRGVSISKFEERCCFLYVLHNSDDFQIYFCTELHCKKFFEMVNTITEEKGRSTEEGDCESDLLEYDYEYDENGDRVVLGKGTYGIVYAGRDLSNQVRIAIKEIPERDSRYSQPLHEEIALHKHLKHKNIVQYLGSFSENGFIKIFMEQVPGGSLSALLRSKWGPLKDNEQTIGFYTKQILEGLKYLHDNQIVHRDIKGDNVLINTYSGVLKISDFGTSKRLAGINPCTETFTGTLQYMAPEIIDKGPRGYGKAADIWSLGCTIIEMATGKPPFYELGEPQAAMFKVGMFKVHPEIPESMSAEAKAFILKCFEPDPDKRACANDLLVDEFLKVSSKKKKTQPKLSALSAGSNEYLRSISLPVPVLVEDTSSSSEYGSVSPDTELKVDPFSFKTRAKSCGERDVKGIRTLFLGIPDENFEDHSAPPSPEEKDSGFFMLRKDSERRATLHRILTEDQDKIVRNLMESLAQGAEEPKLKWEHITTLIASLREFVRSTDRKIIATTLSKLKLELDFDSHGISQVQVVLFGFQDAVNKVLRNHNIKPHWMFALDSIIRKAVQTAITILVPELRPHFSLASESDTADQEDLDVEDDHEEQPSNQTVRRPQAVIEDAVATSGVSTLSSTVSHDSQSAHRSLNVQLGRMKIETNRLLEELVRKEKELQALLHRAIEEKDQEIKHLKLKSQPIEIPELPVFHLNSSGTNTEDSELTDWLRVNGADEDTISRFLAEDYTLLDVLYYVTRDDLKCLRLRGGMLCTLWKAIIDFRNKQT
Text: as §1

[1] = 100 micromolar inhibitor concentration, 100 is no change
[2] = 100 micromolar inhibitor, 100 = no change

CC(=O)Nc1nc2cc(O)ccc2s1 [Compound 01-66, N-(5-hydroxybenzo[d]thiazol-2-yl)acetamide]
residual kinase activity, PHK (PHK; [1]): 49
remaining activity at 100 µM (BRSK1): 48%
remaining activity at 100 µM (ZAP70): 113%
remaining activity at 100 µM (HIPK1): 97%
remaining activity at 100 µM (ASK1): 70%

CC(=O)Nc1nc2ccc(O)cc2s1 [Compound 01-71]
residual kinase activity, PHK (PHK; [1]): 47
remaining activity at 100 µM (BRSK1; [1]): 16%
remaining activity at 100 µM (ZAP70; [1]): 126%
remaining activity at 100 µM (HIPK1; [1]): 76%
remaining activity at 100 µM (ASK1; [1]): 53%

CC(=O)Nc1nc2ccc(C(F)(F)F)cc2s1 [Compound 01-90]
residual kinase activity, PHK (PHK; [1]): 52
remaining activity at 100 µM (BRSK1; [1]): 83%
remaining activity at 100 µM (ZAP70; [1]): 122%
remaining activity at 100 µM (HIPK1; [1]): 48%
remaining activity at 100 µM (ASK1; [1]): 35%

CC(=O)Nc1nc2ccc(C#N)cc2s1 [Compound 01-94]
residual kinase activity, PHK (PHK; [1]): 63
remaining activity at 100 µM (BRSK1; [1]): 62%
remaining activity at 100 µM (ZAP70; [1]): 118%
remaining activity at 100 µM (HIPK1; [1]): 37%
remaining activity at 100 µM (ASK1; [1]): 18%

CC(=O)Nc1cccc(NC(=O)c2nc3ccc(O)cc3s2)c1 [Compound 03-07, N-(3-acetamidophenyl)-6-hydroxybenzo[d]thiazole-2-carboxamide]
residual kinase activity, PHK (PHK; [2]): 55
remaining activity at 100 µM (BRSK1; [2]): 52%
remaining activity at 100 µM (ZAP70; [2]): 94%
remaining activity at 100 µM (HIPK1; [2]): 90%
remaining activity at 100 µM (ASK1; [2]): 86%

O=C(Nc1nc2cc(O)ccc2s1)c1ccncc1 [Compound 03-11]
residual kinase activity, PHK (PHK; [1]): 63
residual kinase activity, BRSK1 (BRSK1; [1]): 70
residual kinase activity, ZAP70 (ZAP70; [1]): 89
residual kinase activity, HIPK1 (HIPK1; [1]): 75
residual kinase activity, ASK1 (ASK1; [1]): 79

O=C(Nc1nc2ccc(O)cc2s1)c1ccccn1 [Compound 03-12]
residual kinase activity, PHK (PHK; [1]): 37
residual kinase activity, BRSK1 (BRSK1; [1]): 63
residual kinase activity, ZAP70 (ZAP70; [1]): 91
residual kinase activity, HIPK1 (HIPK1; [1]): 47
residual kinase activity, ASK1 (ASK1; [1]): 70

O=C(Nc1nc2cc(O)ccc2s1)c1ccccn1 [Compound 03-13]
residual kinase activity, PHK (PHK; [1]): 28
residual kinase activity, BRSK1 (BRSK1; [1]): 95
residual kinase activity, ZAP70 (ZAP70; [1]): 105
residual kinase activity, HIPK1 (HIPK1; [1]): 76
residual kinase activity, ASK1 (ASK1; [1]): 88

COc1ccc2sc(NC(C)=O)nc2c1 [Compound 03-21]
residual kinase activity, PHK (PHK; [1]): 111
remaining activity at 100 µM (BRSK1; [1]): 85%
remaining activity at 100 µM (ZAP70; [1]): 98%
remaining activity at 100 µM (HIPK1; [1]): 39%
remaining activity at 100 µM (ASK1; [1]): 97%

CC(=O)Nc1nc2ccccc2s1 [Compound 03-32]
residual kinase activity, PHK (PHK; [1]): 94
residual kinase activity, BRSK1 (BRSK1; [1]): 95
residual kinase activity, ZAP70 (ZAP70; [1]): 111
residual kinase activity, HIPK1 (HIPK1; [1]): 62
residual kinase activity, ASK1 (ASK1; [1]): 66

O=C(Nc1nc2cc(O)ccc2s1)c1cccnc1 [Compound 03-33]
residual kinase activity, PHK (PHK; [1]): 74
residual kinase activity, BRSK1 (BRSK1; [1]): 83
residual kinase activity, ZAP70 (ZAP70; [1]): 110
residual kinase activity, HIPK1 (HIPK1; [1]): 41
residual kinase activity, ASK1 (ASK1; [1]): 51

O=C(Nc1nc2ccc(O)cc2s1)c1ccccc1 [Compound 03-60]
residual kinase activity, PHK (PHK; [1]): 33
residual kinase activity, BRSK1 (BRSK1; [1]): 43
residual kinase activity, ZAP70 (ZAP70; [1]): 109
residual kinase activity, HIPK1 (HIPK1; [1]): 9
residual kinase activity, ASK1 (ASK1; [1]): 12

CC(=O)Nc1nc2cc(C(F)(F)F)ccc2s1 [Compound 03-73]
residual kinase activity, PHK (PHK; [1]): 91
remaining activity at 100 µM (BRSK1; [1]): 83%
remaining activity at 100 µM (ZAP70; [1]): 115%
remaining activity at 100 µM (HIPK1; [1]): 74%
remaining activity at 100 µM (ASK1; [1]): 83%

CC(=O)Nc1nc2cc(C)ccc2s1 [Compound 03-76]
residual kinase activity, PHK (PHK; [1]): 87
residual kinase activity, BRSK1 (BRSK1; [1]): 75
residual kinase activity, ZAP70 (ZAP70; [1]): 110
residual kinase activity, HIPK1 (HIPK1; [1]): 53
residual kinase activity, ASK1 (ASK1; [1]): 23

CC(=O)Nc1nc2cc(F)ccc2s1 [Compound 03-77]
residual kinase activity, PHK (PHK; [1]): 89
remaining activity at 100 µM (BRSK1; [1]): 78%
remaining activity at 100 µM (ZAP70; [1]): 109%
remaining activity at 100 µM (HIPK1; [1]): 40%
remaining activity at 100 µM (ASK1; [1]): 54%

O=C(Nc1nc2ccc(O)cc2s1)c1ccncc1 [Compound 08-42]
residual kinase activity, PHK (PHK; [1]): 58
residual kinase activity, BRSK1 (BRSK1; [1]): 56
residual kinase activity, ZAP70 (ZAP70; [1]): 92
residual kinase activity, HIPK1 (HIPK1; [1]): 44
residual kinase activity, ASK1 (ASK1; [1]): 37

O=C(Nc1nc2ccc(O)cc2s1)c1cccnc1 [Compound 08-44]
residual kinase activity, PHK (PHK; [1]): 43
residual kinase activity, BRSK1 (BRSK1; [1]): 45
residual kinase activity, ZAP70 (ZAP70; [1]): 79
residual kinase activity, HIPK1 (HIPK1; [1]): 43
residual kinase activity, ASK1 (ASK1; [1]): 18
